Assay results: paper PMC3747596 (PLoS ONE, 2013)
Read-outs that look alike come from different tables or passages of the source.

Tests used:
human NOP = target: T1, human NOP (Homo sapiens, UniProt P41146); experiment: NOP binding against [3H]N/OFQ, HEK293T membranes
T1 construct: expressed in transfected cells; host or cells: HEK293T

5-HT1e = 5-HT1e (Homo sapiens, UniProt P28566); experiment: Radioligand displacement, 5-HT1e; type: binding
5-HT2a = 5-HT2a (Homo sapiens, UniProt P28223); experiment: Radioligand displacement, 5-HT2a; type: binding
Chain of 5-HT2a (P28223 whole entry): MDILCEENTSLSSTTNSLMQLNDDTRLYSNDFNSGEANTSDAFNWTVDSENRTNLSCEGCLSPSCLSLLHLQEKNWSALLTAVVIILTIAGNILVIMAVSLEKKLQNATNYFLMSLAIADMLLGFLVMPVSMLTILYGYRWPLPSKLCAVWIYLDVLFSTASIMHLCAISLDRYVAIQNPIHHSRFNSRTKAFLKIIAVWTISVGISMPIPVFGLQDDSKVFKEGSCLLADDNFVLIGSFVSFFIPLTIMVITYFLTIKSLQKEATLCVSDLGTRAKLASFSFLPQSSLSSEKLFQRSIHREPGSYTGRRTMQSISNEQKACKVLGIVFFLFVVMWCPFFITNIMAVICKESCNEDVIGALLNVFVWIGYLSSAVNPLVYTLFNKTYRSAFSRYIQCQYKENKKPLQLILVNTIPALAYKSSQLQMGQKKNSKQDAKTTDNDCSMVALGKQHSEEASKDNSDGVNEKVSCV

5-HT2b = 5-HT2b (Homo sapiens, UniProt P41595); experiment: Radioligand displacement, 5-HT2b; type: binding
Chain of 5-HT2b (P41595 whole entry): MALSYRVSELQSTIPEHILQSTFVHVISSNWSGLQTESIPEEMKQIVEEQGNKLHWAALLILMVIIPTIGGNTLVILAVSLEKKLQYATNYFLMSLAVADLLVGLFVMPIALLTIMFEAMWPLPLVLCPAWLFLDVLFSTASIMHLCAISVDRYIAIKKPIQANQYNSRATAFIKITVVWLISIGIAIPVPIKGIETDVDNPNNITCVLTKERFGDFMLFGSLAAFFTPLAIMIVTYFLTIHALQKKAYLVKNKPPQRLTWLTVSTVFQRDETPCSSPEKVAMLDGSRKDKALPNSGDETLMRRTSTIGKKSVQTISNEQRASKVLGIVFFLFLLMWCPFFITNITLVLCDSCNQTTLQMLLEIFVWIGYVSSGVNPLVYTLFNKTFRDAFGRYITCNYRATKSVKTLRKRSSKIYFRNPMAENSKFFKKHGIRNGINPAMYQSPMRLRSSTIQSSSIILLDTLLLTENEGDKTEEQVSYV

5-HT2c = target: T2, 5-HT2c (Homo sapiens, UniProt P28335); experiment: Radioligand displacement, 5-HT2c; type: binding
T2 sequence (P28335 33-458): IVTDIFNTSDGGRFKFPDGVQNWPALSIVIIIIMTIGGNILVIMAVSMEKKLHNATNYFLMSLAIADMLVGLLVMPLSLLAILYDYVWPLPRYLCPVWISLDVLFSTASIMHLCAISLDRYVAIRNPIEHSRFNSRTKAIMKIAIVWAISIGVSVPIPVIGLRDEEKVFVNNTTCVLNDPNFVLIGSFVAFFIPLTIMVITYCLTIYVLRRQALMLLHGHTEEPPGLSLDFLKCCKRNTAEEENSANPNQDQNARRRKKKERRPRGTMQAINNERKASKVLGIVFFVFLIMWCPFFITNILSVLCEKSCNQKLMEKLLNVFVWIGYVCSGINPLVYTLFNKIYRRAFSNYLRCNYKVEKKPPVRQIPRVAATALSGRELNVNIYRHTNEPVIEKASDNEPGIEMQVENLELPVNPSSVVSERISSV

5-HT5a = 5-HT5a (Homo sapiens, UniProt P47898); experiment: Radioligand displacement, 5-HT5a; type: binding
Chain of 5-HT5a (P47898 whole entry): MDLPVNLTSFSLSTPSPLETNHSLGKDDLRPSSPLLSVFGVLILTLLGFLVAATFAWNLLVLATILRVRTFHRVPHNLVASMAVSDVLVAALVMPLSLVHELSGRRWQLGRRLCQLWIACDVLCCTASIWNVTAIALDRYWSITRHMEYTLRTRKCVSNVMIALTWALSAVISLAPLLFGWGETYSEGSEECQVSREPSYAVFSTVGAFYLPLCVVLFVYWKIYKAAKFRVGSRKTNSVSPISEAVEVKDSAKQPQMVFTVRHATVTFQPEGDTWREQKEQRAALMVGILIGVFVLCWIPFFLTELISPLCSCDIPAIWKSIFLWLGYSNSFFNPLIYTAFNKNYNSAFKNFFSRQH

5-HT6 = 5-HT6 (Homo sapiens, UniProt P50406); experiment: Radioligand displacement, 5-HT6; type: binding
Chain of 5-HT6 (P50406 whole entry): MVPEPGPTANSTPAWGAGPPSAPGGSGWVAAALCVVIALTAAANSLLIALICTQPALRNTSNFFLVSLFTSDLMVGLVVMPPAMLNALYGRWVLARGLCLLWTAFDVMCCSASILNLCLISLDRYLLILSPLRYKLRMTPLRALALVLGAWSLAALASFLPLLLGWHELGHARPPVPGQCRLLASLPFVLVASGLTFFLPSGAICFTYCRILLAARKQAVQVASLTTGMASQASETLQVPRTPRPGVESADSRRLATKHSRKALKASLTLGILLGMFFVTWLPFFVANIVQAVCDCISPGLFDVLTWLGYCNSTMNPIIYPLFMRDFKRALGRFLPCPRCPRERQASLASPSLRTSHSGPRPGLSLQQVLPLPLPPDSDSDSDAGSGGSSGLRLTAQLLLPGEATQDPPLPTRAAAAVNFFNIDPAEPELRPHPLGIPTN

β1 = β1 (Homo sapiens, UniProt P08588); experiment: Radioligand displacement, β1; type: binding
Chain of β1 (P08588 whole entry): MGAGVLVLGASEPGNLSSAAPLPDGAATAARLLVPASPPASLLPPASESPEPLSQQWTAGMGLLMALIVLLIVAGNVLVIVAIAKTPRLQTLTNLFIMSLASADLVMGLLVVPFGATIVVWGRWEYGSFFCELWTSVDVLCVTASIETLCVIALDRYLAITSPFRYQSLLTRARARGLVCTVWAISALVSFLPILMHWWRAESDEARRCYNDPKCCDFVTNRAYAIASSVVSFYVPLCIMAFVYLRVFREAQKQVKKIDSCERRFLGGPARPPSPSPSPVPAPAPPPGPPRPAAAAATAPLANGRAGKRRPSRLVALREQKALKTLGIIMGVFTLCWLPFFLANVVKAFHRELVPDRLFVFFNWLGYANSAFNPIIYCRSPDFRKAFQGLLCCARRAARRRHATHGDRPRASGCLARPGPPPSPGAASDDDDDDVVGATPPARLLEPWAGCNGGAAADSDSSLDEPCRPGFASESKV

β3 = β3 (Homo sapiens, UniProt P13945); experiment: Radioligand displacement, β3; type: binding
Chain of β3 (P13945 whole entry): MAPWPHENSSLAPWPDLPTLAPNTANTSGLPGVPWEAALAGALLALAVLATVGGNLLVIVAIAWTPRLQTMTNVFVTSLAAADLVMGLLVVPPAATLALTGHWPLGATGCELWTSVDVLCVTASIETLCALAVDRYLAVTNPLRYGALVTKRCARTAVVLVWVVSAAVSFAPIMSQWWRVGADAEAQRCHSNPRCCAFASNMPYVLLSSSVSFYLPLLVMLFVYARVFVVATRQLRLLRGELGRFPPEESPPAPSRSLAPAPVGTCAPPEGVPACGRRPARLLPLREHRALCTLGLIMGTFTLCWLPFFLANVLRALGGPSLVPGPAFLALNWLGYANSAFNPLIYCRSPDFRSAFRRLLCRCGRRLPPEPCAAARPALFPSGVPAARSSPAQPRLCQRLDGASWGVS

D1 = D1 (Homo sapiens, UniProt P21728); experiment: Radioligand displacement, D1; type: binding
Chain of D1 (P21728 whole entry): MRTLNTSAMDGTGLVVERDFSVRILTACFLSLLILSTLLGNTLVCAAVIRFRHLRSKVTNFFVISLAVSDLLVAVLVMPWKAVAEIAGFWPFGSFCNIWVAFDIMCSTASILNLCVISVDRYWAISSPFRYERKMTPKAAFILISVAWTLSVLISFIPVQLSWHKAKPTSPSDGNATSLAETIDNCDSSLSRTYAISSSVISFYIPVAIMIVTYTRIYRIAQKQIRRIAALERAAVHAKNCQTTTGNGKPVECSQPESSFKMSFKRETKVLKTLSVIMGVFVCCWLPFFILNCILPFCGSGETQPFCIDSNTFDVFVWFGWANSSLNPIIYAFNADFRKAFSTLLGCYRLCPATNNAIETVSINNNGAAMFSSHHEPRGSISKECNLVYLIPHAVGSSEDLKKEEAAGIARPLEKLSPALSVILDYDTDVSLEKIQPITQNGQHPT

D4 = target: T3, D4 (Homo sapiens, UniProt P21917); experiment: Radioligand displacement, D4; type: binding
T3 sequence (P21917 1-419): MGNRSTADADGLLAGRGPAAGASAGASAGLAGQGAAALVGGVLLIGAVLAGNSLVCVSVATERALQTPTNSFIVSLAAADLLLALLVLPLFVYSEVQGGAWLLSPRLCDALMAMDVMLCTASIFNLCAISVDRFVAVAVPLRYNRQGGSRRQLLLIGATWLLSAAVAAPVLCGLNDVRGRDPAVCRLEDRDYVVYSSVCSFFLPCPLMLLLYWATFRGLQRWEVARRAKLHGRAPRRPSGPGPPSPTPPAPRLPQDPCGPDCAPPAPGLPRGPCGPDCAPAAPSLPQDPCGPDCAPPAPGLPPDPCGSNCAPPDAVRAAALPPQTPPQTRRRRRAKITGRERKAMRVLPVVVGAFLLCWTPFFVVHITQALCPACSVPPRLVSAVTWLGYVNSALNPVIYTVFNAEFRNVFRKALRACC

GABAA = experiment: Radioligand displacement, GABAA; type: binding; settings: [3H] radioligand Muscimol; Rat, forebrain
[1] = target: noradrenaline (norepinephrine) transporter (NET) (Homo sapiens, UniProt P23975); experiment: Radioligand displacement, NET; type: binding
Chain of noradrenaline (norepinephrine) transporter (NET) (P23975 whole entry): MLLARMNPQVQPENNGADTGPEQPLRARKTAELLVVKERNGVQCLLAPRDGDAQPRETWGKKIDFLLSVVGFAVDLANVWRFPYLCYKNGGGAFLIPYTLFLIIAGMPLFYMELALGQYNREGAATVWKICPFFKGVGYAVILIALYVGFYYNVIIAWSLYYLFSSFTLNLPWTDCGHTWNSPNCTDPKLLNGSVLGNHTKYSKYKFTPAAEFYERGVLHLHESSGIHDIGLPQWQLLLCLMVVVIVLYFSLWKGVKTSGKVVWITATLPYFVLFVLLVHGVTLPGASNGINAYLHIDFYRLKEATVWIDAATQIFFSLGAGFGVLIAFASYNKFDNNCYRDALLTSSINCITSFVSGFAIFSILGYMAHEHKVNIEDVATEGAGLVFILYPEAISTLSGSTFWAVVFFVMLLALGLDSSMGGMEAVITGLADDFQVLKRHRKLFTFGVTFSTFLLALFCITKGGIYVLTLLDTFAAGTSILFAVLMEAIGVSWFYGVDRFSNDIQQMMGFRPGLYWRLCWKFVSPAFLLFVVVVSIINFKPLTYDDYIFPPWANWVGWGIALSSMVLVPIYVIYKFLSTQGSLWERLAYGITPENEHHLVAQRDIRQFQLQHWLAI

[2] = target: NMDA receptors, phencyclidine (cation channel) site; experiment: Radioligand displacement, NMDA; type: binding, Rat; settings: for Ki: [3H] radioligand MK801, Rat, Brain
σ2 = target: T4, σ2 (Rattus norvegicus, UniProt Q5U3Y7); experiment: Radioligand displacement, σ2; type: binding
T4 sequence (Q5U3Y7 1-176): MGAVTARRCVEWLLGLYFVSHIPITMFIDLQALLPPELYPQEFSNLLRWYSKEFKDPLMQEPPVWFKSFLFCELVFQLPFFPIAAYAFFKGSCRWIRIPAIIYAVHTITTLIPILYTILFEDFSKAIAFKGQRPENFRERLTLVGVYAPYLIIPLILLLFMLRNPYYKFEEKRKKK

[3] = test system: human permeability glycoprotein (P-gp); settings: cited from earlier work
5-HT1d = 5-HT1d (Homo sapiens, UniProt P28221); experiment: Radioligand displacement, 5-HT1d
Chain of 5-HT1d (P28221 whole entry): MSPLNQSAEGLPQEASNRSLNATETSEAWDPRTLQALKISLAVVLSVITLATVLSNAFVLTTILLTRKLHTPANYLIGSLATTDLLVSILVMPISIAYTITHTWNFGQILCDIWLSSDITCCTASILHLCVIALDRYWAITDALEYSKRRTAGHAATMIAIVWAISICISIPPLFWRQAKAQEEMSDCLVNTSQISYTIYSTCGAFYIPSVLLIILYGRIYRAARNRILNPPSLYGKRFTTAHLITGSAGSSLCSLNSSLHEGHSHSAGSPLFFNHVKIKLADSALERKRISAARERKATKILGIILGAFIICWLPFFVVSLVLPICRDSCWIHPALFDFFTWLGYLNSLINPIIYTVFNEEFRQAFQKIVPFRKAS

[4] = Caco-2 cell monolayer permeation; settings: human, Caco-2, pH 7.4
α1A-AR = target: T5, α1A-AR (Homo sapiens, UniProt P35348); experiment: PI hydrolysis assay, α1A-AR; settings: hydrolysis of phosphatidylinositol 4,5-bisphosphate (PI)
T5 sequence (P35348 1-466): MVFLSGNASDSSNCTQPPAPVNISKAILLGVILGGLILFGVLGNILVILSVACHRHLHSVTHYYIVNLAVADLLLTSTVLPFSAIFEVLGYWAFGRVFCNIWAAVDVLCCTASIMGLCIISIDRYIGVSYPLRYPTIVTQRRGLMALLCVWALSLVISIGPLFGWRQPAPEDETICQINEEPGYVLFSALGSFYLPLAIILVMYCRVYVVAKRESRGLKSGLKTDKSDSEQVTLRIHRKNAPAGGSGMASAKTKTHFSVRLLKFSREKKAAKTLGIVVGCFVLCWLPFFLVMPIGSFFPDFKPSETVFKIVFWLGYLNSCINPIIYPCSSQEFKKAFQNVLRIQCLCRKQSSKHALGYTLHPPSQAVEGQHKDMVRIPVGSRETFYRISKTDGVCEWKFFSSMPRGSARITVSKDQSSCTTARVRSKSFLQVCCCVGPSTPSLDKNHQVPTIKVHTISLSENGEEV

[5] = target: noradrenaline transporter (NET) (Homo sapiens, UniProt P23975); experiment: Inhibition of noradrenaline transporter, fluorescent dye uptake; type: cell-based; settings: 95% CI = 0.5 to 2.6 µM; read-out: IC50, inhibition of noradrenaline transport
Chain of noradrenaline transporter (NET) (P23975 whole entry): as the sequence (P23975 whole entry) above

κ-OR = test system: κ-OR; design: method as in ref 3 = [3]; 3 Béguin C, Cohen BM (2009) Medicinal Chemistry of Kappa Opioid Receptor Antagonists. In: Dean RL, Bilsky EJ, Negus SS, editors. Opiate Receptors and Antagonists: from Bench to Clinic. New York: Human; settings: cited from earlier work
[6] = Ki, [3H] radioligand GR125743, Human, Cloned
[7] = [3H] radioligand LSD, Human, Cloned, read-out: Ki

Chain of 5-HT1e (P28566 whole entry): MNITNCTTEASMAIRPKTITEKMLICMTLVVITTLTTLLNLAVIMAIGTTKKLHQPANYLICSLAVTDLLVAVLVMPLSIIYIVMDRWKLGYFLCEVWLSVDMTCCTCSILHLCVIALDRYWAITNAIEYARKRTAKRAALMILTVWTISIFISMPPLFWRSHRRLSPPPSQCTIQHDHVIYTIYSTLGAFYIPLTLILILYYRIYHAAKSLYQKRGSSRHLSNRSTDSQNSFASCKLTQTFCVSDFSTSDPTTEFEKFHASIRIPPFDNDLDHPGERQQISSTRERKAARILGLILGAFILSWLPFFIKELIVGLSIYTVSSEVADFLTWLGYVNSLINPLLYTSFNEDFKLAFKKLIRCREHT
T1 sequence (P41146 whole entry): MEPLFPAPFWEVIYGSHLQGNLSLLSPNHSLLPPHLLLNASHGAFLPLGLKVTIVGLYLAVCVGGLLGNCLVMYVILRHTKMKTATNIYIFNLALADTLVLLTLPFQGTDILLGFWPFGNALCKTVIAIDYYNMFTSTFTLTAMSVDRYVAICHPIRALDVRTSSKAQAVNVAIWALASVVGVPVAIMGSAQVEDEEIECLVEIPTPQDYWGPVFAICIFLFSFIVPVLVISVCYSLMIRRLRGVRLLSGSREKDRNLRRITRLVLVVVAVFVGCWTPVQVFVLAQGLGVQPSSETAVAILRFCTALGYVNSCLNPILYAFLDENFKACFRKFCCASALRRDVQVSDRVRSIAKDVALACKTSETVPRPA

Compound | Ki (human NOP) | Ki (5-HT1e) | Ki (5-HT2a) | Ki (5-HT2b) | Ki (5-HT2c) | Ki (5-HT5a) | Ki (5-HT6) | Ki (β1) | Ki (β3) | Ki (D1) | Ki (D4) | Ki (GABAA) | Ki [1] | Ki [2] | Ki (σ2) | substrate of human P-gp [3] | Ki (5-HT1d; [6]) | Papp A→B at 120 min [4] | Papp B→A at 120 min [4] | further results
Oc1ccc2c3c1O[C@H]1c4[nH]c5c(c4C[C@@]4(O)[C@@H](C2)N(CC2CC2)CC[C@]314)C[C@@]1(O)[C@H]2Cc3ccc(O)c4c3[C@@]1(CCN2CC1CC1)[C@H]5O4 [nor-BNI, Nor-binaltorphimine] | 4.4 µM | ≥ 10 µM | ≥ 10 µM | ≥ 10 µM | ≥ 10 µM | ≥ 10 µM | ≥ 10 µM | ≥ 10 µM | ≥ 10 µM | ≥ 10 µM | ≥ 10 µM | ≥ 10 µM | ≥ 10 µM | ≥ 10 µM | ≥ 10 µM | not substrates | 1.13 µM | 51 ×10⁻⁶ cm/s | 310 ×10⁻⁶ cm/s | displacement of [3H]MK-801 from the phencyclidine (cation channel) site ([2]; at 10 µM): did not displace; Ki (5-HT1d; K i, 5-HT1d, radioligand displacement (Table 1)): 1.1 µM
N=C(N)Nc1ccc2[nH]c3c(c2c1)C[C@@]1(O)[C@H]2Cc4ccc(O)c5c4[C@@]1(CCN2CC1CC1)[C@H]3O5 [GNTI, 5′-guanidinonaltrindole] | 2.5 µM | ≥ 10 µM | ≥ 10 µM | ≥ 10 µM | ≥ 10 µM | ≥ 10 µM | ≥ 10 µM | ≥ 10 µM | ≥ 10 µM | ≥ 10 µM | ≥ 10 µM | ≥ 10 µM | ≥ 10 µM | ≥ 10 µM | ≥ 10 µM | not substrates | ≥ 10 µM | 88 ×10⁻⁶ cm/s | 270 ×10⁻⁶ cm/s | effect on maximal response to noradrenaline, PI hydrolysis (α1A-AR): slightly reduced the maximal response to noradrenaline; efflux ratio at 120 min [4]: 3.1
CC(C)[C@@H](CN1CC[C@@](C)(c2cccc(O)c2)[C@@H](C)C1)NC(=O)[C@H]1Cc2ccc(O)cc2CN1 [JDTic] |  |  |  |  |  |  |  |  |  |  |  | ≥ 10 µM |  | ≥ 10 µM |  |  |  | 60 ×10⁻⁶ cm/s | 310 ×10⁻⁶ cm/s | Ki (human NOP; NOP, displacing [3H]N/OFQ (Table 1), read-out: K i): 0.012 µM; Ki (5-HT1e; [3H] radioligand 5HT, Human, Cloned, read-out: Ki): ≥ 10 µM; Ki (5-HT2a; [3H] radioligand Ketanserin, Human, Cloned, read-out: Ki): ≥ 10 µM; Ki (5-HT2b; [7]): ≥ 10 µM; Ki (5-HT2c; [3H] radioligand Mesulergine, Human, Cloned, read-out: Ki): ≥ 10 µM; Ki (5-HT5a; [7]): ≥ 10 µM; Ki (5-HT6; [7]): ≥ 10 µM; Ki (β1; [3H] radioligand CGP12177, Human, Heart, read-out: Ki): ≥ 10 µM; Ki (β3; [3H] radioligand CGP12177, Human, Cloned, read-out: Ki): ≥ 10 µM; Ki (D1; [3H] radioligand SCH23390, Human, Cloned, read-out: Ki): ≥ 10 µM; Ki (D4; [3H] radioligand N-Methylspiperone, Human, Cloned, read-out: Ki): ≥ 10 µM; Ki ([1]; NET, versus [3H]nisoxetine (Table 1), read-out: K i): 0.054 µM; Ki (σ2; [3H] radioligand DTG, Rat, PC12, read-out: Ki): ≥ 10 µM; IC50 [5]: 1.1 µM; K e in κ-OR functional assays (κ-OR): < 20 pM; Ki (5-HT1d): ≥ 10 µM
